Results taken from patent publication US7183279B2, “Histogranin-like peptides and non-peptides, processes for their preparation and uses thereof” (University of Ottawa, priority 2006, dated 2007).
“Also recorded” adds a separate entry of the source. Where two headings read alike, the source gives them in different places. Non-standard residues stand in square brackets, D forms with d. Residues, ends and D or L forms follow the SMILES beside them. Phe(4-Cl) = N[C@@H](Cc1ccc(Cl)cc1)C(=O)O

Key:
Swiss Webster mice [1] = assay: Mouse writhing test (acetic acid-induced); type: in vivo; settings: for AD50 (nmol/mouse): acetic acid i.p. 5 min after injection; for analgesia: i.v. administration, 1 μmol/kg; for analgesic activity after peripheral administration: oral and i.p. administrations
Swiss Webster mice [2] = assay: Mouse rotarod assay; settings: 10 nmol i.c.v.
Excerpt: Mouse rotarod assay. The rotarod treadmill (model 7600, UGO Basile, Italy) for mice was used to assess the motor side-effects of antinociceptive agents. […] The apparatus is constituted of a rod with a diameter of 2.5 cm suspended horizontally 50 cm above a plane working area. The rod is turning at a speed of 8 revolutions per min. Circular perpex separators are placed at regular intervals along the rod so that five mice can be tested at the same time. Before administering any compound, all animals are placed on the turning rod for one min in two consecutive rounds. Mice that fall from the rod during these conditioning experiments are excluded from the assay. For the assay, the test compounds were administered i.c.v. and the animals were placed on the turning rod for two min. The % of mice in groups of 10 mice which fell during this latter two min-experiment was recorded as the % of mice showing motor effects. Rotarod assays were conducted at different times (up to 60 min) after the administration of peptides. Statistical calculation were made using Student t-test. Results: Mouse writhing pain assay. […] The lengths of action of the various compounds were evaluated by measuring the time (T1/2) it took after injection of a specific dose of a compound to produce half-maximal effect. […] Analgesic effects of peripheral administrations. […] Mouse tail-flick assay.

Swiss Webster mice [3] = assay: Mouse tail flick assay (radiant heat); type: in vivo; settings: i.c.v.; for AD50 (nmol/mouse): latency 5 min after injection
Experimental: Mouse tail flick assay. […] Briefly, the latency to withdraw the tail from a focused light stimulus was determined using a photocell. […] Baseline latencies were determined before experimental treatment as the mean of two trials and a maximal latency of 12 s was used to minimize tissue damage. Post-treatment latencies were determined 5 min after i.c.v. injection. The antinociceptive effect was expressed as the percentage of the maximum possible effect, as calculated by the formula: % MPE=[(post-injection latency-baseline latency)/(cutoff latency-baseline latency)]×100. […] Group % MPE means were compared using one-way ANOVAs and P≦0.05 was considered significant.

Swiss Webster mice [4] = assay: Induction of tolerance to morphine, tail-flick latency; type: in vivo, mouse; settings: for tail-flick latency on repeated dosing: 8 days
Experimental: Tail-flick latency to thermal pain was recorded 30 min after the i.p. administration(s) in the morning session of days 1, 3, 6 and 8 as indicated in the figure.

[5] = i.t. administration of NMDA, literature; cited from earlier work
rat = settings: literature; cited from earlier work
[6] = sciatic nerve injury, literature; cited from earlier work
Swiss Webster mice [7] = settings: literature values; cited from earlier work

Compound | Potency ratio relative to Histogranin (HN) (Swiss Webster mice [1]; i.c.v.) | AD50 (nmol/mouse) (Swiss Webster mice [1]; i.c.v.) | motor effect (Swiss Webster mice [2]) | Potency ratio relative to [Ser1]HN (Swiss Webster mice [3]) | AD50 (nmol/mouse) (Swiss Webster mice [3]) | further results
Cyclo(-Gly-(p-amino)Phe-Tyr-D-Arg-) [Compound I-4] | 9.14 | 2.52 nmol/mouse | – | – | – | analgesia (Swiss Webster mice [1]): 71%
N=C(N)NCCC[C@@H](Nc1ccc(C(=O)O)cc1NC(=O)Cc1ccc(O)cc1)C(N)=O [II-3, N-5-guanidinopentanamide-(2R)-yl-2-N-(p-hydroxyphenylacetyl)-4-carboxy-phenylenediamine] | 7.27 | 3.16 nmol/mouse | did not cause any motor effect | 3.59 | 31.7 nmol/mouse | –
CN1CC[C@]23c4c5ccc(O)c4O[C@H]2[C@@H](O)C=C[C@H]3[C@H]1C5 [Morphine, reference compound] | – | 0.72 nmol/mouse | – | – | 1.57 nmol/mouse | tail-flick latency on repeated dosing (Swiss Webster mice [4]; 10 mg/kg i.p. twice a day): tolerance being developed at days 6 and 8
C[C@@H](O)[C@@H]1NC(=O)[C@@H](CCCNC(=N)N)NC(=O)[C@H](Cc2ccc(O)cc2)NC(=O)[C@H](Cc2ccc(Cl)cc2)NC1=O [Compound I-5, Cyclo(-Thr-(p-chloro)Phe-Tyr-D-Arg-)] (cyclo([Phe(4-Cl)]Y[dR]T)) | 2.14 | 10.7 nmol/mouse | did not cause any motor effect | 2.96 | 38.5 nmol/mouse | –
Cyclo(-Gly-(p-chloro)Phe-Tyr-(p-guanidino)Phe-) [Compound I-3] | 21.3 | 1.08 nmol/mouse | – | – | – | –
N=C(N)NCCC[C@H](C(N)=O)n1c(-c2ccc(O)cc2)nc2cc(C(=O)O)ccc21 [III-1] | 5.56 | 4.14 nmol/mouse | did not cause any motor effect | 11.9 | 9.6 nmol/mouse | analgesic activity after peripheral administration (Swiss Webster mice [1]): dose-dependent analgesic activity; also recorded: Significant analgesic activity; analgesia in tail-flick assay in words (Swiss Webster mice [3]): more potent than HN
[Ser^1] HN: a chemically stable analog of HN | – | – | – | 1 | 114 nmol/mouse | hyperalgesia and allodynia [5]: attenuated hyperalgesia and allodynia; tonic pain (rat): blocked tonic pain; hyperalgesia and allodynia [6]: attenuated hyperalgesia and allodynia
Cyclo(-Gly-(p-chloro)Phe-Tyr-(p-amino)Phe-) [Compound I-2] | 3.39 | 6.79 nmol/mouse | – | – | – | –
N=C(N)NCCC[C@@H](Nc1ccc(C(=O)c2ccc(Cl)cc2)cc1NC(=O)Cc1ccc(O)cc1)C(N)=O [II-4, N-5-guanidinopentanamide-(2R)-yl-2-N-(p-hydroxyphenylacetyl)-4-(p-chlorobenzoyl)-phenylenediamine] | 8.87 | 2.61 nmol/mouse | did not cause any motor effect | 8.70 | 13.1 nmol/mouse | –
N=C(N)NCCC[C@H]1NC(=O)[C@H](Cc2ccc(O)cc2)NC(=O)[C@H](Cc2ccc(Cl)cc2)NC(=O)CNC1=O [Compound I-1, Cyclo(-Gly-(p-chloro)Phe-Tyr-D-Arg-)] (cyclo(G[Phe(4-Cl)]Y[dR])) | 135 | 0.17 nmol/mouse | did not cause any motor effect | 12.5 | 9.1 nmol/mouse | fold more potent than morphine (Swiss Webster mice [1]; i.c.v.): 3.9 fold; analgesia (Swiss Webster mice [1]): 84%; analgesic activity after peripheral administration (Swiss Webster mice [1]): dose-dependent analgesic activity; also recorded: Significant analgesic activity; analgesia in tail-flick assay in words (Swiss Webster mice [3]): more potent than HN
N=C(N)NCCC[C@H](Nc1ccccc1NC(=O)Cc1ccc(O)cc1)C(N)=O [II-1, N-5-guanidinopentanamide-(2S)-yl-2-N-(p-hydroxyphenylacetyl) phenylenediamine] | 3.54 | 6.5 nmol/mouse | did not cause any motor effect | 8.0 | 14.2 nmol/mouse | potentiation of morphine analgesia (Swiss Webster mice [1]; coadministration i.c.v. of subanalgesic dose (3 nmol) with morphine): left shift in the dose-response curve of morphine; also recorded: potentiates the analgesic effects of morphine; prolongation of morphine analgesia (Swiss Webster mice [1]; coadministration with morphine 0.5 nmol i.c.v.): slightly prolongated; analgesia (Swiss Webster mice [1]): 35%; analgesic activity after peripheral administration (Swiss Webster mice [1]): dose-dependent analgesic activity; also recorded: Significant analgesic activity; effect on analgesic effect of morphine (Swiss Webster mice [4]; 4 mg/kg i.p. 30 min prior to morphine 10 mg/kg): potentiated the analgesic effect of morphine; effect on morphine tolerance (Swiss Webster mice [4]; 4 mg/kg i.p. 30 min prior to morphine 10 mg/kg, days 6 and 8): inhibits morphine tolerance; tail-flick latency on repeated dosing (Swiss Webster mice [4]; 4 mg/kg i.p. twice a day, alone): small increase in the tail-flick latency that was significant only on days 1 and 8; analgesia in tail-flick assay in words (Swiss Webster mice [3]): more potent than HN
CC(C)CC(NC(=O)C(NC(=O)C(CCCNC(=N)N)NC(=O)CNC(=O)C(CCC(N)=O)NC(=O)CN)C(C)O)C(=O)NC(Cc1ccc(O)cc1)C(=O)NCC(=O)NC(Cc1ccccc1)C(=O)O (stereo not shown) [HN-(7–15), reference compound] (H-GQGRTLYGF-OH; configuration not given here) | 2.71 | 8.5 nmol/mouse | – | – | – | AD50 (Swiss Webster mice [7]): 8.5 nmol/mouse
N=C(N)NCCC[C@H](Nc1ccc(C(F)(F)F)cc1NC(=O)Cc1ccc(O)cc1)C(N)=O [II-2, N-5-guanidinopentanamide-(2S)-yl-2-N-(p-hydroxyphenylacetyl)-4-trifluorometyl-phenylenediamine] | 1.40 | 16.1 nmol/mouse | did not cause any motor effect | 1.16 | 98.6 nmol/mouse | –
